{
  "source": "paper PMC2691174",
  "about": "(Cancer, 2009)",
  "key": {"[1]": {"conditions": "for tmax Mean(Range): stratum A (no EIAEDs, N=14), imatinib 400 mg/day"}, "[2]": {"test_system": "patients with newly diagnosed glioblastoma (GBM)", "conditions": "radiotherapy plus temozolomide; cited from earlier work"}, "recurrent GBM patients": {"test_system": "recurrent GBM patients", "conditions": "single agent; cited from earlier work"}, "PDGFRβ": {"test_system": "PDGFRβ", "conditions": "cited from earlier work"}, "[3]": {"test": "Plasma pharmacokinetics of vatalanib", "format": "in vivo, human", "conditions": "for Tmax: human, plasma, oral, tmax Mean(Range)"}, "[4]": {"test_system": "recurrent malignant glioma patients", "test": "Phase I dose escalation: MTD, DLT and toxicity", "conditions": "all patients, with imatinib and hydroxyurea"}, "[5]": {"test": "Plasma pharmacokinetics of hydroxyurea", "conditions": "for AUC0−12 / 0−12 Mean(Range) / Cl/F Mean(Range) / Cmax/D Mean(Range) / t1/2 Mean(Range) / tmax Mean(Range): hydroxyurea 500 mg twice-a-day"}, "[6]": {"conditions": "stratum B (on EIAEDs, N=8), day 7 (vatalanib alone, steady state)"}, "[7]": {"conditions": "stratum B (on EIAEDs, N=8), day 35 (with imatinib and hydroxyurea)"}, "[8]": {"conditions": "stratum A (no EIAEDs, N=15), day 7 (vatalanib alone, steady state)"}, "[9]": {"conditions": "stratum A (no EIAEDs, N=15), day 35 (with imatinib and hydroxyurea)"}, "[10]": {"conditions": "stratum A (no EIAEDs, N=14), day 8 of cycle 1"}, "[11]": {"conditions": "stratum A (no EIAEDs, N=14), day 35 of cycle 1"}, "[12]": {"conditions": "stratum B (on EIAEDs, N=6), day 8 of cycle 1"}, "[13]": {"conditions": "stratum B (on EIAEDs, N=6), day 35 of cycle 1"}},
  "note": "Like-named read-outs stand apart in the source and are kept apart here.",
  "data": [
    {"smiles": "Cc1ccc(NC(=O)c2ccc(CN3CCN(C)CC3)cc2)cc1Nc1nccc(-c2cccnc2)n1", "note": "[Imatinib]", "values": [
      {"measurement": "effect of hydroxyurea on imatinib pharmacokinetics", "setting": "[1]; fully apparent at day 35, more pronounced in patients taking EIAEDs", "value": "increase in Cmax/D and decreases in CL/F and V/F"}
    ]},
    {"smiles": "Cc1ccc(NC(=O)c2ccc(CN3CCNCC3)cc2)cc1Nc1nccc(-c2cccnc2)n1", "note": "[CGP74588]", "values": [
      {"measurement": "tmax Mean(Range)", "setting": "[1]; day 8 of cycle 1", "value": "3.43(2.00−6.00) h"},
      {"measurement": "tmax Mean(Range)", "setting": "[1]; day 35 of cycle 1", "value": "3.57(1.00−8.00) h"}
    ]},
    {"smiles": "Cn1nnc2c(C(N)=O)ncn2c1=O", "note": "[temozolomide]", "values": [
      {"measurement": "median progression-free survival (PFS)", "setting": "[2]", "value": 6.9, "unit": "months"}
    ]},
    {"smiles": "COc1cc2c(Oc3ccc4[nH]c(C)cc4c3F)ncnc2cc1OCCCN1CCCC1", "note": "[cedarinib]", "values": [
      {"measurement": "median PFS", "setting": "recurrent GBM patients", "value": 16, "unit": "weeks"},
      {"measurement": "radiographic response rate", "setting": "recurrent GBM patients", "value": 50, "unit": "%"}
    ]},
    {"smiles": "Clc1ccc(Nc2nnc(Cc3ccncc3)c3ccccc23)cc1", "note": "[vatalanib]", "values": [
      {"measurement": "PDGFRβ IC50 relative to that of imatinib", "setting": "PDGFRβ", "value": "approximately twice"},
      {"measurement": "effect of vatalanib dose on vatalanib pharmacokinetic parameters", "setting": "[3]; 500 to 1250 mg twice daily", "value": "no significant effect"},
      {"measurement": "decrease of vatalanib Cmax/D by use of EIAEDs", "setting": "[3]; day 7", "value": "approximately 3 fold"},
      {"measurement": "effect of EIAEDs on vatalanib plasma t1/2", "setting": "[3]; day 7", "value": "not significantly affecting"},
      {"measurement": "increase of vatalanib CL/F by use of EIAEDs", "setting": "[3]; day 7", "value": "approximately 3 fold"},
      {"measurement": "increase of vatalanib V/F by use of EIAEDs", "setting": "[3]; day 7", "value": "more than 3 fold"},
      {"measurement": "Tmax", "setting": "[3]; [6]", "value": 1.79, "unit": "h"},
      {"measurement": "Tmax", "setting": "[3]; [7]", "value": 2.13, "unit": "h"},
      {"measurement": "AUC0−12 / 0−12 Mean(Range)", "setting": "[3]; [8]", "value": "11.1(2.23−16.1) ng/mL*h/mg"},
      {"measurement": "Cl/F Mean(Range)", "setting": "[3]; [8]", "value": "122(62.0−448) L/h"},
      {"measurement": "Cmax/D Mean(Range)", "setting": "[3]; [8]", "value": "3.12(0.72−5.03) ng/mL/mg"},
      {"measurement": "AUC0−12 / 0−12 Mean(Range)", "setting": "[3]; [9]", "value": "10.4(3.28−25.5) ng/mL*h/mg"},
      {"measurement": "Cl/F Mean(Range)", "setting": "[3]; [9]", "value": "137(39.3−305) L/h"},
      {"measurement": "Cmax/D Mean(Range)", "setting": "[3]; [9]", "value": "2.82(0.82−7.38) ng/mL/mg"},
      {"measurement": "AUC0−12 / 0−12 Mean(Range)", "setting": "[3]; [6]", "value": "4.51(1.31−12.1) ng/mL*h/mg"},
      {"measurement": "Cl/F Mean(Range)", "setting": "[3]; [6]", "value": "377(82.3−765) L/h"},
      {"measurement": "Cmax/D Mean(Range)", "setting": "[3]; [6]", "value": "1.15(0.40−2.46) ng/mL/mg"},
      {"measurement": "AUC0−12 / 0−12 Mean(Range)", "setting": "[3]; [7]", "value": "6.75(0.73−17.7) ng/mL*h/mg"},
      {"measurement": "Cl/F Mean(Range)", "setting": "[3]; [7]", "value": "368(56.5−1371) L/h"},
      {"measurement": "Cmax/D Mean(Range)", "setting": "[3]; [7]", "value": "1.91(0.16−6.52) ng/mL/mg"},
      {"measurement": "recommended vatalanib dose", "setting": "[4]; irrespective of EIAEDs", "value": 1000, "unit": "mg twice-a-day"},
      {"measurement": "MTD of vatalanib", "setting": "[4]; continuous daily schedule", "value": 1000, "unit": "mg twice-a-day"}
    ]},
    {"smiles": "NC(=O)NO", "note": "[Hydroxyurea]", "values": [
      {"measurement": "effect of EIAEDs or time on hydroxyurea pharmacokinetics", "setting": "[5]; in vivo", "value": "no relevant effect"},
      {"measurement": "AUC0−12 / 0−12 Mean(Range)", "setting": "[5]; [10]", "value": "50.4(9.50−91.1) ng/mL*h/mg"},
      {"measurement": "Cl/F Mean(Range)", "setting": "[5]; [10]", "value": "15.2(5.50−52.5) L/h"},
      {"measurement": "Cmax/D Mean(Range)", "setting": "[5]; [10]", "value": "18.5(6.80−29.6) ng/mL/mg"},
      {"measurement": "t1/2 Mean(Range)", "setting": "[5]; [10]", "value": "4.84(1.60−12.5) h"},
      {"measurement": "tmax Mean(Range)", "setting": "[5]; [10]", "value": "1.29(0.50−2.00) h"},
      {"measurement": "AUC0−12 / 0−12 Mean(Range)", "setting": "[5]; [11]", "value": "41.7(13.0−84.5) ng/mL*h/mg"},
      {"measurement": "Cl/F Mean(Range)", "setting": "[5]; [11]", "value": "15.4(5.90−38.4) L/h"},
      {"measurement": "Cmax/D Mean(Range)", "setting": "[5]; [11]", "value": "19.4(5.60−32.6) ng/mL/mg"},
      {"measurement": "t1/2 Mean(Range)", "setting": "[5]; [11]", "value": "3.29(1.40−6.80) h"},
      {"measurement": "tmax Mean(Range)", "setting": "[5]; [11]", "value": "1.30(0.50−4.00) h"},
      {"measurement": "AUC0−12 / 0−12 Mean(Range)", "setting": "[5]; [12]", "value": "37.38(18.1−60.4) ng/mL*h/mg"},
      {"measurement": "Cl/F Mean(Range)", "setting": "[5]; [12]", "value": "16.4(8.3−27.6) L/h"},
      {"measurement": "Cmax/D Mean(Range)", "setting": "[5]; [12]", "value": "16.5(7.60−35.0) ng/mL/mg"},
      {"measurement": "t1/2 Mean(Range)", "setting": "[5]; [12]", "value": "3.5(2.70−5.40) h"},
      {"measurement": "tmax Mean(Range)", "setting": "[5]; [12]", "value": "1.80(0.50−4.00) h"},
      {"measurement": "AUC0−12 / 0−12 Mean(Range)", "setting": "[5]; [13]", "value": "41.4(17.0−70.1) ng/mL*h/mg"},
      {"measurement": "Cl/F Mean(Range)", "setting": "[5]; [13]", "value": "15.4(7.10−29.4) L/h"},
      {"measurement": "Cmax/D Mean(Range)", "setting": "[5]; [13]", "value": "19.0(7.80−31.4) ng/mL/mg"},
      {"measurement": "t1/2 Mean(Range)", "setting": "[5]; [13]", "value": "7.12(2.50−21.5) h"},
      {"measurement": "tmax Mean(Range)", "setting": "[5]; [13]", "value": "0.90(0.50−1.50) h"}
    ]}
  ]
}
